From the NIST ThermoML archive (doi:10.1016/j.jct.2018.01.015)
± gives the expanded uncertainty stated by the source.

Details: Gas, rotating-body viscometer for gases

In the case of `N#N` [nitrogen], the viscosity (253.21 K, 100.8 kPa) is reported as 0.01561 ± 3e-05 mPa·s, the viscosity (253.21 K, 200.9 kPa) is reported as 0.01564 ± 3e-05 mPa·s and the viscosity (253.21 K, 400.7 kPa) is reported as 0.01566 ± 3e-05 mPa·s. The viscosity (253.21 K, 600.8 kPa) was 0.01571 ± 3e-05 mPa·s, the viscosity (253.21 K, 800.8 kPa) was 0.01574 ± 3e-05 mPa·s and the viscosity (253.21 K, 1000.9 kPa) was 0.01579 ± 3e-05 mPa·s. The viscosity (253.21 K, 1200.9 kPa) was 0.01584 ± 3e-05 mPa·s, the viscosity (273.24 K, 100.7 kPa) was 0.01659 ± 3e-05 mPa·s and the viscosity (273.24 K, 200.8 kPa) was 0.01661 ± 3e-05 mPa·s. It also gave a viscosity (273.24 K, 400.5 kPa) of 0.01664 ± 3e-05 mPa·s, a viscosity (273.24 K, 600.4 kPa) of 0.01667 ± 3e-05 mPa·s and a viscosity (273.24 K, 800.6 kPa) of 0.01671 ± 3e-05 mPa·s. It also gave a viscosity (273.24 K, 1000.6 kPa) of 0.01674 ± 3e-05 mPa·s, a viscosity (273.24 K, 1499.8 kPa) of 0.01685 ± 3e-05 mPa·s and a viscosity (298.24 K, 800.5 kPa) of 0.01785 ± 2.5e-05 mPa·s. It also gave a viscosity (298.25 K, 99.6 kPa) of 0.01776 ± 2.5e-05 mPa·s, a viscosity (298.25 K, 100.7 kPa) of 0.01777 ± 2.5e-05 mPa·s and a viscosity (298.25 K, 200.5 kPa) of 0.01778 ± 2.5e-05 mPa·s. The viscosity (298.25 K, 400.7 kPa) was 0.0178 ± 2.5e-05 mPa·s, the viscosity (298.25 K, 400.8 kPa) was 0.0178 ± 2.5e-05 mPa·s and the viscosity (298.25 K, 600.2 kPa) was 0.01783 ± 2.5e-05 mPa·s. For the same compound, the viscosity (298.25 K, 1000.1 kPa) was 0.01789 ± 2.5e-05 mPa·s, the viscosity (298.25 K, 1500.2 kPa) was 0.01799 ± 2.5e-05 mPa·s and the viscosity (323.26 K, 100.6 kPa) was 0.0189 ± 3.1e-05 mPa·s. It also gave a viscosity (323.26 K, 101.5 kPa) of 0.0189 ± 3.1e-05 mPa·s, a viscosity (323.26 K, 200.7 kPa) of 0.0189 ± 3.1e-05 mPa·s and a viscosity (323.26 K, 400.4 kPa) of 0.01893 ± 3.1e-05 mPa·s. For the same compound, the viscosity (323.26 K, 600.8 kPa) was 0.01896 ± 3.1e-05 mPa·s, the viscosity (323.26 K, 800.2 kPa) was 0.01896 ± 3.1e-05 mPa·s and the viscosity (323.26 K, 1000.6 kPa) was 0.01901 ± 3.1e-05 mPa·s. The viscosity (323.26 K, 1000.9 kPa) was 0.01901 ± 3.1e-05 mPa·s, the viscosity (323.27 K, 398.8 kPa) was 0.01893 ± 3.1e-05 mPa·s and the viscosity (323.27 K, 1501.9 kPa) was 0.01907 ± 3.1e-05 mPa·s. For the same compound, the viscosity (323.27 K, 1802.1 kPa) was 0.01913 ± 3.1e-05 mPa·s, the viscosity (373.29 K, 100.8 kPa) was 0.02102 ± 3.1e-05 mPa·s and the viscosity (373.29 K, 201.1 kPa) was 0.02104 ± 3.1e-05 mPa·s. It also gave a viscosity (373.29 K, 401 kPa) of 0.02106 ± 3.1e-05 mPa·s, a viscosity (373.29 K, 601 kPa) of 0.02107 ± 3.1e-05 mPa·s and a viscosity (373.29 K, 1000.3 kPa) of 0.02111 ± 3.1e-05 mPa·s. It also gave a viscosity (373.29 K, 1500.6 kPa) of 0.02118 ± 3.1e-05 mPa·s, a viscosity (373.29 K, 1807.2 kPa) of 0.02122 ± 3.1e-05 mPa·s and a viscosity (423.33 K, 100.9 kPa) of 0.02302 ± 3.4e-05 mPa·s. For the same compound, the viscosity (423.33 K, 200.9 kPa) was 0.02303 ± 3.4e-05 mPa·s, the viscosity (423.33 K, 400.7 kPa) was 0.02306 ± 3.4e-05 mPa·s and the viscosity (423.33 K, 600.6 kPa) was 0.02308 ± 3.4e-05 mPa·s. It also gave a viscosity (423.33 K, 1000.5 kPa) of 0.02311 ± 3.4e-05 mPa·s, a viscosity (423.33 K, 1500.2 kPa) of 0.02316 ± 3.4e-05 mPa·s and a viscosity (423.33 K, 1799.4 kPa) of 0.02319 ± 3.4e-05 mPa·s. For the same compound, the viscosity (473.38 K, 100.7 kPa) was 0.02494 ± 3.6e-05 mPa·s, the viscosity (473.38 K, 200.8 kPa) was 0.02495 ± 3.6e-05 mPa·s and the viscosity (473.38 K, 398.5 kPa) was 0.02496 ± 3.6e-05 mPa·s. The viscosity (473.38 K, 600.9 kPa) was 0.02497 ± 3.6e-05 mPa·s, the viscosity (473.38 K, 1000.7 kPa) was 0.02499 ± 3.6e-05 mPa·s and the viscosity (473.38 K, 1500.6 kPa) was 0.02503 ± 3.6e-05 mPa·s. It also gave a viscosity (473.38 K, 1799.3 kPa) of 0.02505 ± 3.6e-05 mPa·s.
